Assay results as given in patent publication US8071587B2, “(Dihydro)imidazoiso[5,1-A]quinolines” (N. V. Organon, priority 2009, dated 2011).

Tested on: not given
Test: not given
Details: not given

Row | Compound | melting point [°C]
1 | COc1cc2c(cc1C=C(F)F)-c1c(-c3cccs3)nc(C(=O)N(C)C(C)(C)C)n1CC2 [Example 39, 9-(2,2-Difluoro-vinyl)-8-methoxy-1-thiophen-2-yl-5,6-dihydro-imidazo[5,1-a]isoquinoline-3-carboxylic acid tert-butyl-methyl-amide] | 154 to 155
2 | CCOc1ccc2c(c1)CCn1c(C(=O)N(C)C(C)(C)C)nc(-c3cccs3)c1-2 [Example 40c, 8-Ethoxy-1-thiophen-2-yl-5,6-dihydro-imidazo[5,1-a]isoquinoline-3-carboxylic acid tert-butyl-methyl-amide] | 111 to 112
3 | COc1cc2c(cc1CCC(C)(C)O)-c1c(-c3cccs3)nc(C(=O)N(C)C(C)(C)C)n1CC2 [Example 41c, 9-(3-Hydroxy-3-methyl-butyl)-8-methoxy-1-thiophen-2-yl-5,6-dihydro-imidazo[5,1-a]isoquinoline-3-carboxylic acid tert-butyl-methyl-amide] | 140 to 143
4 | COc1cccc(Oc2cc3c(cc2OC)CCn2c(C(=O)N(C)C(C)(C)C)nc(-c4cccs4)c2-3)c1 [Example 43b, 8-Methoxy-9-(3-methoxy-phenoxy)-1-thiophen-2-yl-5,6-dihydro-imidazo[5,1-a]isoquinoline-3-carboxylic acid tert-butyl-methyl-amide] | 123 to 124
5 | COc1cc2c(cc1OC(C)C)-c1c(-c3cncs3)nc(C(=O)N(C)C(C)(C)C)n1CC2 [Example 47e, 9-Isopropoxy-8-methoxy-1-thiazol-5-yl-5,6-dihydro-imidazo[5,1-a]isoquinoline-3-carboxylic acid tert-butyl-methyl-amide] | 112 to 114
6 | COc1cc2c(c(F)c1CC(C)C)-c1c(-c3cccs3)nc(C(=O)N(C)C(C)(C)C)n1CC2 [Example 48j, 10-Fluoro-9-isobutyl-8-methoxy-1-thiophen-2-yl-5,6-dihydro-imidazo[5,1-a]isoquinoline-3-carboxylic acid tert-butyl-methyl-amide] | 141 to 142

Results, then the compound that gave them:

Row | melting point [°C] | Compound
7 | 163 to 164 | COc1cc2ccn3c(C(=O)N(C)C(C)(C)C)nc(-c4cccs4)c3c2cc1OC(C)C [Example 15j, 9-Isopropoxy-8-methoxy-1-thiophen-2-yl-imidazo[5,1-a]isoquinoline-3-carboxylic acid tert-butyl-methyl-amide]
8 | 122 to 126 | COc1cc2c(cc1Oc1ccccc1)-c1c(-c3cccs3)nc(C(=O)N(C)C(C)(C)C)n1CC2 [Example 42b, 8-Methoxy-9-phenoxy-1-thiophen-2-yl-5,6-dihydro-imidazo[5,1-a]isoquinoline-3-carboxylic acid tert-butyl-methyl-amide]

Target: T1, human FSH receptor (Homo sapiens, UniProt P23945)
T1 construct: expressed in transfected cells; host or cells: Chinese Hamster Ovary (CHO) cells, stably transfected, cotransfected with a CRE/promoter-firefly luciferase reporter
T1 sequence (P23945 18-695): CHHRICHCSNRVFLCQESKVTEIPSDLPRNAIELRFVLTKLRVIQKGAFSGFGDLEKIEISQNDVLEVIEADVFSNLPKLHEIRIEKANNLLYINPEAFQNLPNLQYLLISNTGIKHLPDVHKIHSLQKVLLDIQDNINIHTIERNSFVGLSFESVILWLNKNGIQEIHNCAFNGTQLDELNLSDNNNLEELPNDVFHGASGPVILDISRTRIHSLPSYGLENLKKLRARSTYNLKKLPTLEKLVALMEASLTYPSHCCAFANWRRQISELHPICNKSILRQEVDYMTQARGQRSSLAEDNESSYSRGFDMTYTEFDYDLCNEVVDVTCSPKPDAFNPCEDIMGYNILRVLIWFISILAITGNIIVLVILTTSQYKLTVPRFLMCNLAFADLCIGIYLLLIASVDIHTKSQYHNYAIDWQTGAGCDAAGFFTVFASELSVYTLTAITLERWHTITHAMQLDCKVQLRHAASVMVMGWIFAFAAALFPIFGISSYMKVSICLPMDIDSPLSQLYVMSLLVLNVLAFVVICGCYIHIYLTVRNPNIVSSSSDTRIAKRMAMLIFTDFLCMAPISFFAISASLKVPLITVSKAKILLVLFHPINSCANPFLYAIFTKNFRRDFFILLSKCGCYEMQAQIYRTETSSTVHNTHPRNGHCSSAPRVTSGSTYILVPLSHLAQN
Test: Agonistic activity at the human FSH receptor expressed in CHO cells, CRE-luciferase reporter (hFSHRago CHO luc)
Format: cell-based
Details: CHO cells stably transfected with human FSH receptor and CRE/luciferase reporter; 4 hours of incubation
From the text: The term EC50 means the concentration of the test compound that elicits half-maximal (50%) stimulation compared to the compound's maximally attainable effect. The values can be determined e.g. in a cell line transfected with a FSH receptor gene and cotransfected with a cAMP responsive element/promoter directing the expression of a reporter gene. Values can be determined using a software program such as MathIQ (version 2.0, ID Business Solutions Limited). Agonistic Activity of Compounds at the Human FSH Receptor Expressed in CHO Cells Agonistic activity of the compounds at the human FSH receptor was determined in Chinese Hamster Ovary (CHO) cells stably transfected with the human FSH receptor and cotransfected with a cAMP responsive element (CRE)/promotor directing the expression of a firefly luciferase reporter gene. Binding of the compounds to the Gs protein-coupled FSH receptor will result in an increase of cAMP, which in turn will induce an increased transactivation of the luciferase reporter. Cells (7,500 cells/well of a 384 well plate) were incubated in Dulbecco' minimal essential F12 modified medium (Invitrogen), supplemented with 1 μg/ml bovine insulin, 5 μg/ml human apo-transferrin, 80 U/ml penicillin G and 80 μg/ml streptomycin with the test compounds (concentration between 0.0316 nM and 10.0 μM) in duplicate in a humidified atmosphere (95%) at 5-7% CO2 and 37° C. The final concentration of DMSO was 1%. After 4 hours of incubation, plates were allowed to adjust to room temperature for 1 hour. Then, Luclite (PerkinElmer) solution was added to the wells and cells were allowed to lyse for at least 1 hour at room temperature. Subsequently, luciferase activity was measured in a luminescence counter. The signal is expressed as counts per second (cps). The EC50 (concentration of the test compound that elicits half-maximal (50%) luciferase stimulation compared to the compound's maximally attainable effect) and efficacy values (maximal effect of the test compound as percentage of the maximal effect of recombinant human FSH) of the compounds were determined using the software program MathIQ (version 2.0, ID Business Solutions Limited). EC50 data are indicated at the synthesis examples.

Row | Compound | EC50 [nM]
9 | CCCCN1CCN(C(=O)c2nc(-c3cccs3)c3n2CCc2cc(OC)c(OC(C)C)cc2-3)CCC1=O [Example 27b, 4-Butyl-1-(9-isopropoxy-8-methoxy-1-thiophen-2-yl-5,6-dihydro-imidazo[5,1-a]isoquinoline-3-carbonyl)-[1,4]diazepan-5-one] | 0.6
10 | C=CCN1CCN(C(=O)c2nc(-c3cccs3)c3n2CCc2cc(OC)c(OC(C)C)cc2-3)CCC1=O [Example 28, 4-Allyl-1-(9-isopropoxy-8-methoxy-1-thiophen-2-yl-5,6-dihydro-imidazo[5,1-a]isoquinoline-3-carbonyl)-[1,4]diazepan-5-one] | 3

The next lines start with the values.

Row | EC50 [nM] | Compound
11 | 1 | COC1=CC2CCn3c(C(=O)N(C)C(C)(C)C)nc(-c4cccs4)c3C2C=C1c1cccnc1 (stereo not shown) [Example 2a, 8-Methoxy-9-pyridin-3-yl-1-thiophen-2-yl-5,6,6a,10a-tetrahydro-imidazo[5,1-a]isoquinoline-3-carboxylic acid tert-butyl-methyl-amide]
12 | 6.5 | COc1cc2ccn3c(C(=O)N(C)C(C)(C)C)nc(-c4cccs4)c3c2cc1OC(C)C [Example 15j, 9-Isopropoxy-8-methoxy-1-thiophen-2-yl-imidazo[5,1-a]isoquinoline-3-carboxylic acid tert-butyl-methyl-amide]
13 | 5 | CCn1nnc(-c2cc3c(cc2OC)CCn2c(C(=O)N(C)C(C)(C)C)nc(-c4cccs4)c2-3)n1 [Example 51c, 9-(2-Ethyltetrazol-5-yl-)-8-methoxy-1-thiophen-2-yl-5,6-dihydro-imidazo[5,1-a]isoquinoline-3-carboxylic acid tert-butyl-methyl-amide]
